Measured values from ChEMBL document CHEMBL3301562, “MMV Box screening against Plasmodium falciparum protein kinases and aminoacyl tRNA synthetases”.

Key:
Type in all cases: functional
[1] = molecular target: T1, Cdk-related protein kinase 6 (Plasmodium falciparum, UniProt O77239); experiment: Final concentrations were 1.5 uM ATP, 5 mM MnCl2, and 15 ug/ml PK6 in a buffer of 100 mM Tris-HCl (pH 7.5). 50 ug/mL MBP was provided as the substrate; 10 uM staurosporine was used as a control inhibitor. Incubation time was 3 hours and 40 minutes.The catalytic activity of each kinase was considered proportional to ATP consumed, as determined from measurements of residual [ATP] with the luciferase-based reagent Kinase-Glo (Promega) following incubation. Luminescence (proportional to residual [ATP]) was measured on the plate readers FLx800 (BioTek Instruments, Winooski, VT, USA) and MicroBeta2.
T1 sequence (O77239 whole entry): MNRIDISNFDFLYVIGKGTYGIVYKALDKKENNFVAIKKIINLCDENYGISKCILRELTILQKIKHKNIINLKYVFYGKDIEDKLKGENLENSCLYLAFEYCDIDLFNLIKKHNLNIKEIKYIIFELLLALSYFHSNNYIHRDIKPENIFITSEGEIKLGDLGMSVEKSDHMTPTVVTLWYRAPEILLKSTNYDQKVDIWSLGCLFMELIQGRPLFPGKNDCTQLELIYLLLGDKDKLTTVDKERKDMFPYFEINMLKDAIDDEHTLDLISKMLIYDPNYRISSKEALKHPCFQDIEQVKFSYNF

[2] = molecular target: T2, Putative uncharacterized protein pk7 (Plasmodium falciparum, UniProt O96214); experiment: Final concentrations were 1 uM ATP, 2 mM DTT, 20 mM MgCl2, 2 mM MnCl2, 0.01% BSA, and 6 ug/ml PK7, in a buffer of 20 mM Tris-HCl (pH 7.5). The enzyme itself was the only substrate present (since autophosphorylation occurs); 100 uM 1NA-PP1 was used as a control inhibitor. Incubation time was 3 hours.
T2 sequence (O96214 whole entry): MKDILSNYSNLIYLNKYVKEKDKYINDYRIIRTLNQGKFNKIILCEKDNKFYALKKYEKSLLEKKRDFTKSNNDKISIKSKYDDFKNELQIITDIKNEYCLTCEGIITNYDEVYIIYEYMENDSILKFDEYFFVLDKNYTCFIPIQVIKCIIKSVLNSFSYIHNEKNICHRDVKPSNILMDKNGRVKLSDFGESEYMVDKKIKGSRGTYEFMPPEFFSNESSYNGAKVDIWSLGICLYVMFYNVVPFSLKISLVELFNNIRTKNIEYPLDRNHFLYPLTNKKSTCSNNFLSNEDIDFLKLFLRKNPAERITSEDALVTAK

[3] = molecular target: T3, Mitogen-activated protein kinase (Plasmodium falciparum, UniProt Q25917); experiment: Final concentrations were 1 uM ATP, 0.5 mM DTT, 1 mM MgCl2, 0.5 mg/mL BSA, and 10 ug/ml MAP2 in a buffer of 50 mM HEPES (pH 7.0). 0.5 mg/mL histone III-S served as the substrate (13); 100 uM AMP-PNP, an ATP analog, was used as a control inhibitor. Incubation time was 4 hours.
T3 sequence (Q25917 whole entry): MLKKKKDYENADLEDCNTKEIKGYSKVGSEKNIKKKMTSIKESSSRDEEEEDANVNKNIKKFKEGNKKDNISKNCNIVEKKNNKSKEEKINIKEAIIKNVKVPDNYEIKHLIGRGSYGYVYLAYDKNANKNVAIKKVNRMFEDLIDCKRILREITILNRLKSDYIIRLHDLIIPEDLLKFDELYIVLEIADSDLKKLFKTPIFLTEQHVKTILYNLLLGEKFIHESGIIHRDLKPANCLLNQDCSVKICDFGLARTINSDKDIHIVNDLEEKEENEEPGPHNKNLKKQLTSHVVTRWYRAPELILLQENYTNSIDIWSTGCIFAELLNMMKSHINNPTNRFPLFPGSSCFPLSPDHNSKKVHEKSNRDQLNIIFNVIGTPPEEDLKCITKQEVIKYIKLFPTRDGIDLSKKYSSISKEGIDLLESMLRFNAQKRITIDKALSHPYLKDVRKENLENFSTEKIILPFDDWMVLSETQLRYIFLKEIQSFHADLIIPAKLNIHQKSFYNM

[4] = molecular target: Calcium-dependent protein kinase 1 (Plasmodium falciparum, UniProt P62344); experiment: MMV: CDPK1 Protein kinase inhibition assay using recombinant PfCDPK1, syntide 2 peptide substrate, ATP and KinaseGlo to measure % inhibition at 1 uM MMV box compound.
[5] = molecular target: T4, Calcium-dependent protein kinase 4 (Plasmodium falciparum (isolate 3D7), UniProt Q8IBS5); experiment: MMV: CDPK4 Protein kinase inhibition assay using recombinant PfCDPK4, syntide2 peptide substrate, ATP and KinaseGlo to measure % inhibition at 1 uM MMV box compound.
T4 sequence (Q8IBS5 whole entry): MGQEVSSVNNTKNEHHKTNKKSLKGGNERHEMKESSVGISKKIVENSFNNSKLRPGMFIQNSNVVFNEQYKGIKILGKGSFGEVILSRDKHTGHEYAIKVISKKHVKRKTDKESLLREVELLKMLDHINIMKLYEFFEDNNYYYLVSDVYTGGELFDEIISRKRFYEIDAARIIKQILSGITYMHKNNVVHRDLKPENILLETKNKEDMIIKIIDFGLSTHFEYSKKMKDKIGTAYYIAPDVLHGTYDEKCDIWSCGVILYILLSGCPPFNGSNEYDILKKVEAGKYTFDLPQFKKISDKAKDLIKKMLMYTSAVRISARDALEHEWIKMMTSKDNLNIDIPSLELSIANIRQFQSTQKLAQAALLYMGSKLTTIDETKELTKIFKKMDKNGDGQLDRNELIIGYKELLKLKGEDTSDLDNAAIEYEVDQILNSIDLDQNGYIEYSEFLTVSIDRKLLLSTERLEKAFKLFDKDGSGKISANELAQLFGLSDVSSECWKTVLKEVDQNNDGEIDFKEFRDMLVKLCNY

Proline--tRNA ligase = molecular target: T5, Proline--tRNA ligase (Plasmodium falciparum (isolate 3D7), UniProt Q8I5R7); experiment: MMV: ProRS recombinant Plasmodium falciparum Prolyl-tRNA-synthetase, assay with yeast tRNA, ATP, and proline and 3 uM MMV malaria box compound, assay read out with kinase glo as % inhibition.
T5 sequence (Q8I5R7 whole entry): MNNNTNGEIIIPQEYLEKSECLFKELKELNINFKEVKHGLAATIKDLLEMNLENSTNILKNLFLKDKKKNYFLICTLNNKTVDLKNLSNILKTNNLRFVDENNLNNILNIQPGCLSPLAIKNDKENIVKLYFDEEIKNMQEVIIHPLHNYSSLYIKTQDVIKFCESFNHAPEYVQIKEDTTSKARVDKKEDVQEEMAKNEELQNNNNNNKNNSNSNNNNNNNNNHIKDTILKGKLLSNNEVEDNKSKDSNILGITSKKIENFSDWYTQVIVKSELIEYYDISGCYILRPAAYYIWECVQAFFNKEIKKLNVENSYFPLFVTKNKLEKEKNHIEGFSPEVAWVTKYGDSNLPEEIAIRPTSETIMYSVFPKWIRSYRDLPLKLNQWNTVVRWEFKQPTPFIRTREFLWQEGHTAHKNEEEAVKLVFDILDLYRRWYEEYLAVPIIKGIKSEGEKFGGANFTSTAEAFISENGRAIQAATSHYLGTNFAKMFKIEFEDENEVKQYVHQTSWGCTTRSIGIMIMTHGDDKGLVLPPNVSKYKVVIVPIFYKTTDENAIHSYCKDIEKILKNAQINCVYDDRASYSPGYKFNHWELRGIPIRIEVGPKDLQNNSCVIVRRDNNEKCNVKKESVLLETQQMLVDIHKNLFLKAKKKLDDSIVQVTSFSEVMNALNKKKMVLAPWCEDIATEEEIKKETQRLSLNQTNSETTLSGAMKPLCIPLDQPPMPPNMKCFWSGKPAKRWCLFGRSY

Lysine--tRNA ligase = Lysine--tRNA ligase (Plasmodium falciparum (isolate 3D7), UniProt Q8IDJ8); experiment: MMV: KRS recombinant Plasmodium falciparum Lysyl-tRNA-synthetase, assay with yeast tRNA, ATP, and lysine and 3 uM MMV malaria box compound, assay read out with kinase glo as % inhibition.
Sequence of Lysine--tRNA ligase (Q8IDJ8 whole entry): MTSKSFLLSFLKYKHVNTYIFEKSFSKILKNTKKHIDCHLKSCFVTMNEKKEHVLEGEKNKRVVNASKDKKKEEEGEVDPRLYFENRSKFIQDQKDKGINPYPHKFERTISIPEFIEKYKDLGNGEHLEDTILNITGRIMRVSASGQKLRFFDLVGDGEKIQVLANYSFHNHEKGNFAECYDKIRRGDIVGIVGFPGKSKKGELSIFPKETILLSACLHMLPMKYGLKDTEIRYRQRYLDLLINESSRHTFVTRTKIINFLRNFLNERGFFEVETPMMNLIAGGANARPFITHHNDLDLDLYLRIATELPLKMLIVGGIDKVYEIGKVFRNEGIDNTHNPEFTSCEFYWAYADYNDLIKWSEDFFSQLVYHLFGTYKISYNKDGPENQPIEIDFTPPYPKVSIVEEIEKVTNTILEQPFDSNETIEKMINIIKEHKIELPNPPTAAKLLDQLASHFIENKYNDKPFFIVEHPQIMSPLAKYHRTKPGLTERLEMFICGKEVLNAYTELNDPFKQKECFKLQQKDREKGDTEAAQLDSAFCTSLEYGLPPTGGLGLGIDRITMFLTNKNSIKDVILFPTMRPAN

Sequence of Calcium-dependent protein kinase 1 (P62344 whole entry): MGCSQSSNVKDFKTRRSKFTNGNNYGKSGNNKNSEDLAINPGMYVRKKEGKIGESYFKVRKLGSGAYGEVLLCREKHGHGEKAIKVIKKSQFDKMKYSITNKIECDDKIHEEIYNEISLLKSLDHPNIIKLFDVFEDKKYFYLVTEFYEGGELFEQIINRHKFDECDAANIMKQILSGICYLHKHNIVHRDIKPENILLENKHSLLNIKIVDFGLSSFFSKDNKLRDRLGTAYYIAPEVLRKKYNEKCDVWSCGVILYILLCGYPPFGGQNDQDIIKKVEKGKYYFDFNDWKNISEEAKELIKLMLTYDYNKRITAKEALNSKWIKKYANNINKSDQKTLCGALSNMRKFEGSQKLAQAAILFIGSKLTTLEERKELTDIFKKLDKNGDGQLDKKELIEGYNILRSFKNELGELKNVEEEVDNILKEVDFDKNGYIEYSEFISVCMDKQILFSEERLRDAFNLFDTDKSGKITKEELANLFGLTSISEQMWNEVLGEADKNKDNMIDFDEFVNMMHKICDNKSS

SMILES | IC50 [1] | IC50 [2] | IC50 [3] | IC50 [4] | IC50 [5] | IC50 (Proline--tRNA ligase) | IC50 (Lysine--tRNA ligase)
O=C1c2ccccc2-c2nnc(-c3ccc(Br)cc3)cc21 | > 1000 nM | > 1000 nM | > 1000 nM | > 1000 nM | > 1000 nM | > 2500 nM | > 2500 nM
Cc1nc2ccccc2c(O)c1CC=C(Cl)Cl | > 1000 nM | > 1000 nM | > 1000 nM | > 1000 nM | > 1000 nM | > 2500 nM | > 2500 nM
CN(C)CCCNCc1ccc(-c2ccc(F)c(Cl)c2)o1 | > 1000 nM | > 1000 nM | > 1000 nM | > 1000 nM | > 1000 nM | > 2500 nM | > 2500 nM
O=c1nc(C=Cc2ccc(Br)cc2)oc2ccccc12 | > 1000 nM | > 1000 nM | > 1000 nM | > 1000 nM | 700 nM | > 2500 nM | > 2500 nM
COc1ccc2nc(N)nc(C)c2c1 | > 1000 nM | > 1000 nM | > 1000 nM | > 1000 nM | > 1000 nM | > 2500 nM | > 2500 nM
COc1ccc(C(=O)NC(c2ccc(Cl)cc2Cl)c2cc(Cl)c3cccnc3c2O)cc1 (centres undefined) | > 1000 nM | > 1000 nM | > 1000 nM | > 1000 nM | > 1000 nM | > 2500 nM | > 2500 nM
CCC(=O)Nc1nnc(Cc2ccc(OC)c(OC)c2)s1 | > 1000 nM | > 1000 nM | > 1000 nM | > 1000 nM | > 1000 nM | > 2500 nM | > 2500 nM
COc1cccc(C(=O)Nc2ccc(-c3nc4ccccc4[nH]3)cc2)c1 | > 1000 nM | > 1000 nM | > 1000 nM | > 1000 nM | > 1000 nM | > 2500 nM | > 2500 nM
CCOC(=O)c1cnc2ccc(Cl)cc2c1NCCCN(C)C | > 1000 nM | > 1000 nM | > 1000 nM | > 1000 nM | > 1000 nM | > 2500 nM | > 2500 nM
O=C1c2ccccc2C2=Nc3ccccc3SC(c3cccc(F)c3)C12 (centres undefined) | > 1000 nM | > 1000 nM | > 1000 nM | > 1000 nM | > 1000 nM | > 2500 nM | > 2500 nM
Cc1ccccc1OCCSc1nc2ccc(NC(=O)c3ccccc3)cc2s1 | > 1000 nM | > 1000 nM | > 1000 nM | > 1000 nM | > 1000 nM | > 2500 nM | > 2500 nM
CC(C)(C)c1ccc(C(=O)Nc2c3c(nn2-c2cccc(Cl)c2)CSC3)cc1 | > 1000 nM | > 1000 nM | > 1000 nM | > 1000 nM | > 1000 nM | > 2500 nM | > 2500 nM
CCOc1cc2c(cc1OCC)C(c1cc(Cl)c(O)c(OCC)c1)NCC2 (centres undefined) | > 1000 nM | > 1000 nM | > 1000 nM | > 1000 nM | > 1000 nM | > 2500 nM | > 2500 nM
COc1ccc(N2CCN(C(CNC(=O)CC(C)(C)C)c3ccc4c(c3)OCO4)CC2)cc1 (centres undefined) | > 1000 nM | > 1000 nM | > 1000 nM | > 1000 nM | > 1000 nM | > 2500 nM | > 2500 nM
CCCCCCn1c(=N)n(CC(O)COc2cccc(C)c2)c2ccccc21 (centres undefined) | > 1000 nM | > 1000 nM | > 1000 nM | > 1000 nM | > 1000 nM | > 2500 nM | > 2500 nM
Oc1ccc(C(=C(Cl)Cl)c2ccc(O)cc2)cc1 | > 1000 nM | > 1000 nM | > 1000 nM | > 1000 nM | > 1000 nM | > 2500 nM | > 2500 nM
COc1ccc(CN2CCN(Cc3ccccc3)CC2)c(O)c1 | > 1000 nM | > 1000 nM | > 1000 nM | > 1000 nM | > 1000 nM | > 2500 nM | > 2500 nM
OC(CNCc1ccccc1)Cn1c2ccccc2c2ccccc21 (centres undefined) | > 1000 nM | > 1000 nM | > 1000 nM | > 1000 nM | > 1000 nM | > 2500 nM | > 2500 nM
OC1CCCCC1C1(NC(=S)Nc2ccccc2)CCCCC1 (centres undefined) | > 1000 nM | > 1000 nM | > 1000 nM | > 1000 nM | > 1000 nM | > 2500 nM | > 2500 nM
OC1=C2C(=Nc3ccccc3SC2c2ccc(Br)cc2)c2ccccc21 (centres undefined) | > 1000 nM | > 1000 nM | > 1000 nM | > 1000 nM | > 1000 nM | > 2500 nM | > 2500 nM
COc1ccc(C(=O)C2CC2c2ccc(Cl)cc2)cc1 (centres undefined) | > 1000 nM | > 1000 nM | > 1000 nM | > 1000 nM | > 1000 nM | > 2500 nM | > 2500 nM
CCN1CCN(c2c(C(=O)c3ccccc3)cnc3cc(OC)c(OC)cc23)CC1 | > 1000 nM | > 1000 nM | > 1000 nM | > 1000 nM | > 1000 nM | > 2500 nM | > 2500 nM
